Measurements from patent publication US20090099192A1, “Substituted 1H-pyrrole-2,5-diones” (Bayer CropScience AG, priority 2004, published 2009).

Experiment: logP determination by HPLC on reversed-phase column (C 18), EEC Directive 79/831 Annex V.A8
Type: physicochemical
Conditions: reversed-phase C 18, 43° C., acid range (0.1% aqueous phosphoric acid, acetonitrile), marked a)
Method: a) The logP values given in table 1 were determined in accordance with EEC Directive 79/831 Annex V.A8 by HPLC (High Performance Liquid Chromatography) on a reversed-phase column (C 18). Temperature: 43° C. (a) Mobile phases for the determination in the acid range: 0.1% aqueous phosphoric acid, acetonitrile; linear gradient from 10% acetonitrile to 90% acetonitrile—corresponding measurement results are marked a) in table 1. Calibration was carried out using unbranched alkan-2-ones (having 3 to 16 carbon atoms) with known logP values (determination of the logP values by the retention times using linear interpolation between two successive alkanones).

SMILES | logP
O=C1C(O)=C(c2cccc(C(F)(F)F)c2)C(=O)N1c1ccc(Cl)cc1 [Example 61] | logP = 3.45^a)
Cc1ccc(-c2ccc(Cl)cc2)cc1C1=C(O)C(=O)N(C(C)C)C1=O [Example 122] | logP = 4.08^a)
Cc1ccc(-c2ccc(Cl)cc2)cc1C1=C(O)C(=O)N(c2cc(F)ccc2F)C1=O [Example 146] | logP = 4.51^a)
O=C1C(O)=C(c2ccccc2F)C(=O)N1Cc1cc(Cl)cc(Cl)c1 [Example 110] | logP = 3.56^a)
O=C1C(O)=C(c2ccc(Cl)cc2)C(=O)N1c1cc(Cl)cc(Cl)c1 [Example 78] | logP = 3.94^a)
O=C1C(O)=C(c2ccc(Cl)cc2)C(=O)N1c1ccc(OC(F)(F)F)cc1 [Example 55] | logP = 3.83^a)
CC1CCCC(N2C(=O)C(O)=C(c3ccccc3Cl)C2=O)C1 (centres unmarked) [Example 162] | logP = 3.57^a)
CCOC(=O)C1(N2C(=O)C(O)=C(c3ccccc3Cl)C2=O)CCCC(C)C1 (centres unmarked) [Example 168] | logP = 3.78^a)
Cc1ccc(-c2ccc(Cl)cc2)cc1C1=C(O)C(=O)N(c2ccccc2Cl)C1=O [Example 129] | logP = 4.03^a)
O=C1C(O)=C(c2cccc(C(F)(F)F)c2)C(=O)N1Cc1ccccc1F [Example 96] | logP = 3.48^a)
N#Cc1ccc(C2=C(O)C(=O)N(c3cc(Cl)cc(Cl)c3)C2=O)cc1 [Example 77] | logP = 2.80^a)
CCOc1cccc(F)c1CN1C(=O)C(O)=C(c2ccc(C(F)(F)F)cc2)C1=O [Example 184] | logP = 3.81^a)
N#Cc1ccc(C2=C(O)C(=O)N(c3ccc(OC(F)(F)F)cc3)C2=O)cc1 [Example 54] | logP = 2.70^a)
O=C1C(O)=C(c2ccccc2Cl)C(=O)N1c1ccccc1 [Example 24] | logP = 2.43^a)
CC1CCCC(N2C(=O)C(O)=C(c3cccc(C(F)(F)F)c3)C2=O)C1 (centres unmarked) [Example 175] | logP = 4.56^a)
O=C1C(O)=C(c2ccccc2Cl)C(=O)N1Cc1ccc(OC(F)(F)F)cc1 [Example 84] | logP = 3.56^a)
Cc1ccc(-c2ccc(Cl)cc2)cc1C1=C(O)C(=O)N(c2c(Cl)cccc2Cl)C1=O [Example 135] | logP = 4.18^a)
O=C1C(O)=C(c2ccccc2Cl)C(=O)N1C1CCCCC1 [Example 22] | logP = 3.17^a)
O=C1C(O)=C(c2c(F)cccc2F)C(=O)N1Cc1ccccc1F [Example 94] | logP = 2.49^a)
CCOC(=O)C1(N2C(=O)C(OC(=O)C(C)(C)C)=C(c3ccccc3Cl)C2=O)CCCC(C)C1 (centres unmarked) [Example 170] | logP = 5.85^a)
O=C1C(O)=C(c2ccccc2Cl)C(=O)N1C12CC3CC(CC(C3)C1)C2 [Example 161] | logP = 4.20^a)
Cc1ccc(-c2ccc(Cl)cc2)cc1C1=C(O)C(=O)N(Cc2c(Cl)cccc2Cl)C1=O [Example 140] | logP = 4.70^a)
O=C1C(O)=C(c2cccc(C(F)(F)F)c2)C(=O)N1c1ccc(C(F)(F)F)cc1 [Example 68] | logP = 3.59^a)
CCOc1cccc(F)c1CN1C(=O)C(O)=C(c2ccc(Cl)cc2)C1=O [Example 183] | logP = 3.85^a)
CC1CCCC(C#N)(N2C(=O)C(O)=C(c3ccccc3Cl)C2=O)C1 (centres unmarked) [Example 158] | logP = 3.06^a)

SMILES | logP
CC(C)(C)OC(=O)N1CCCC(N2C(=O)C(O)=C(c3ccccc3Cl)C2=O)C1 (centres unmarked) [Example 155] | logP = 3.18^a)
O=C1C(O)=C(c2cc(Cl)cc(Cl)c2)C(=O)N1Cc1ccccc1F [Example 102] | logP = 3.48^a)
Cc1ccc(-c2ccc(Cl)cc2)cc1C1=C(O)C(=O)N(c2c(F)cccc2F)C1=O [Example 124] | logP = 3.85^a)
CC1CCCC(C#N)(N2C(=O)C(OC(=O)C(C)(C)C)=C(c3ccccc3Cl)C2=O)C1 (centres unmarked) [Example 171] | logP = 5.01^a)
O=C1C(O)=C(c2ccccc2F)C(=O)N1c1ccc(OC(F)(F)F)cc1 [Example 51] | logP = 3.13^a)
CCOC(=O)CCN1C(=O)C(O)=C(c2cccc(OC(F)(F)F)c2)C1=O [Example 178] | logP = 3.95^a)
COC(=O)C1(N2C(=O)C(O)=C(c3ccccc3Cl)C2=O)CCCC(C)C1 (centres unmarked) [Example 166] | logP = 3.48^a)
O=C1C(O)=C(c2cccc(OC(F)(F)F)c2)C(=O)N1Cc1ccc(OC(F)(F)F)cc1 [Example 90] | logP = 4.30^a)
CC(C)(C)C(=O)OC1=C(c2ccccc2Cl)C(=O)N(C2CCOCC2)C1=O [Example 156] | logP = 3.87 ^a)
N#Cc1ccc(C2=C(O)C(=O)N(Cc3ccc(OC(F)(F)F)cc3)C2=O)cc1 [Example 87] | logP = 2.85^a)
O=C1C(O)=C(c2ccccc2Cl)C(=O)N1C1CCOCC1 [Example 154] | logP = 1.94^a)
Cc1ccc(-c2ccc(Cl)cc2)cc1C1=C(O)C(=O)N(CC2CC2)C1=O [Example 125] | logP = 4.08^a)
O=C1C(O)=C(c2cc(Cl)cc(Cl)c2)C(=O)N1Cc1cc(Cl)cc(Cl)c1 [Example 118] | logP = 4.21^a)
Cc1ccc(-c2ccc(Cl)cc2)cc1C1=C(O)C(=O)N(c2ccc(Cl)cc2Cl)C1=O [Example 126] | logP = 4.51^a)
O=C1C(O)=C(c2cccc(OC(F)(F)F)c2)C(=O)N1c1ccc(Cl)cc1 [Example 65] | logP = 3.59^a)
CCOC(=O)CCN1C(=O)C(O)=C(c2cc(Cl)cc(Cl)c2)C1=O [Example 179] | logP = 2.80^a)
O=C1C(O)=C(c2cc(Cl)cc(Cl)c2)C(=O)N1Cc1c(F)cccc1F [Example 109] | logP = 3.20^a)
CC1CC(N2C(=O)C(O)=C(c3ccccc3Cl)C2=O)CC(C)(C)C1 (centres unmarked) [Example 159] | logP = 4.18^a)
O=C1C(O)=C(c2ccc(OC(F)(F)F)cc2)C(=O)N1Cc1ccccc1F [Example 97] | logP = 3.83^a)
CCOC(=O)C1(N2C(=O)C(O)=C(c3ccccc3Cl)C2=O)CCC(OC)CC1 (single isomer, unassigned) [Example 151] | logP = 2.53^a)
Cc1ccc(-c2ccc(Cl)cc2)cc1C1=C(O)C(=O)N(Cc2cc(Cl)ccc2Cl)C1=O [Example 139] | logP = 4.84^a)
O=C1C(O)=C(c2ccccc2F)C(=O)N1c1ccc(Cl)cc1 [Example 59] | logP = 2.76^a)
Cc1ccc(-c2ccc(Cl)cc2)cc1C1=C(O)C(=O)N(C(C)c2cccc(Cl)c2)C1=O (racemic) [Example 141] | logP = 4.84^a)
O=C1C(O)=C(c2c(F)cccc2F)C(=O)N1c1ccc(Cl)cc1 [Example 58] | logP = 2.45^a)
O=C1C(O)=C(c2ccc(OC(F)(F)F)cc2)C(=O)N1Cc1ccc(OC(F)(F)F)cc1 [Example 86] | logP = 4.48^a)

SMILES | logP
O=C1C(O)=C(c2cccc(C(F)(F)F)c2)C(=O)N1c1cc(Cl)cc(Cl)c1 [Example 75] | logP = 3.78^a)
O=C1C(O)=C(c2ccc(Cl)cc2)C(=O)N1c1ccc(C(F)(F)F)cc1 [Example 70] | logP = 3.70^a)
O=C1C(O)=C(c2ccc(Cl)cc2)C(=O)N1Cc1cc(Cl)cc(Cl)c1 [Example 115] | logP = 4.48^a)
Cc1ccc(-c2ccc(Cl)cc2)cc1C1=C(O)C(=O)N(C(C)(C)C)C1=O [Example 137] | logP = 4.51^a)
CCOc1ccc(N2C(=O)C(O)=C(c3ccccc3Cl)C2=O)nn1 [Example 29] | logP = 1.82^a)
N#Cc1ccc(C2=C(O)C(=O)N(Cc3cc(Cl)cc(Cl)c3)C2=O)cc1 [Example 114] | logP = 2.94^a)
O=C1C(O)=C(c2c(F)cccc2F)C(=O)N1Cc1ccc(OC(F)(F)F)cc1 [Example 82] | logP = 3.16^a)
CCOC(=O)CCN1C(=O)C(O)=C(c2ccc(C)cc2)C1=O [Example 180] | logP = 2.74^a)
O=C1C(O)=C(c2ccc(C(F)(F)F)cc2)C(=O)N1Cc1cc(Cl)cc(Cl)c1 [Example 116] | logp = 4.18^a)
CCOC(=O)C1CCCC(N2C(=O)C(O)=C(c3ccccc3Cl)C2=O)C1 (centres unmarked) [Example 150] | logP = 3.01^a)
N#CC1(N2C(=O)C(O)=C(c3ccccc3Cl)C2=O)CCCCC1 [Example 157] | logP = 2.72^a)
O=C1C(O)=C(c2ccccc2F)C(=O)N1Cc1ccccc1F [Example 95] | logP = 2.82^a)
CCOc1cccc(F)c1CN1C(=O)C(O)=C(c2ccc(C#N)cc2)C1=O [Example 172] | logP = 2.61^a)
Cc1ccc(C2=C(O)C(=O)N(Cc3ccccc3F)C2=O)cc1 [Example 103] | logP = 3.51^a)
CCOc1cccc(F)c1CN1C(=O)C(O)=C(c2ccc(OC(F)(F)F)cc2)C1=O [Example 182] | logP = 4.13^a)
O=C1C(O)=C(c2ccc(OC(F)(F)F)cc2)C(=O)N1CC(F)(F)F [Example 39] | logP = 3.04^a)
O=C1C(O)=C(c2ccc(Cl)cc2)C(=O)N1Cc1ccccc1F [Example 99] | logP = 3.56^a)
CCOC(=O)C1(N2C(=O)C(O)=C(c3ccccc3Cl)C2=O)CCC(OC)CC1 (single isomer, unassigned) [Example 149] | logP = 2.76^a)
Cc1ccc(-c2ccc(Cl)cc2)cc1C1=C(O)C(=O)N(C(C)c2ccc(Cl)cc2)C1=O (centres unmarked) [Example 120] | logP = 4.94^a)
O=C1C(O)=C(c2cccc(OC(F)(F)F)c2)C(=O)N1c1ccc(C(F)(F)F)cc1 [Example 71] | logP = 3.75^a)
CCOC(=O)C1(N2C(=O)C(OC(=O)C(C)(C)C)=C(c3ccccc3Cl)C2=O)CCCCC1 [Example 169] | logP = 5.50^a)
Cc1ccc(-c2ccc(Cl)cc2)cc1C1=C(O)C(=O)N(C(C)(C)c2cccc(Cl)c2)C1=O [Example 143] | logP = 4.99^a)
CC(C)(C)C(=O)OC1=C(c2ccccc2Cl)C(=O)N(c2ccccc2)C1=O [Example 28] | logP = 4.37^a)
O=C1C(O)=C(c2ccc(Cl)cc2)C(=O)N1Cc1ccc(OC(F)(F)F)cc1 [Example 88] | logP = 4.27^a)
